Measurements as given in patent publication US20120277161A1, “INHIBITION OF MULTIPLE CELL ACTIVATION PATHWAYS” (INTER-K PTY LIMITED, priority 2009, published 2012).

Key:
[1] = target: PI3K gamma (Homo sapiens, UniProt P48736); assay: PI3K HTRF activity assay; type: biochemical; details: final concentration 50 μM
[2] = target: c-SRC (h) (Homo sapiens, UniProt P12931); assay: c-Src kinase activity assay (cell-free, 33P-ATP); type: biochemical
Procedure: In a final reaction volume of 25 μL, c-SRC (h) (5-10 mU) is incubated with 8 mM MOPS pH 7.0, 0.2 mM EDTA, 250 μM KVEKIGEGTYGVVYK (SEQ ID No. 19) (Cdc2 peptide), 10 mM MgAcetate and [γ-33P-ATP] (specific activity approx. 500 cpm/pmol, concentration as required). The reaction is initiated by the addition of the MgATP mix. After incubation for 40 minutes at room temperature, the reaction is stopped by the addition of 5 μL of a 3% phosphoric acid solution. 10 μL of the reaction is then spotted onto a P30 filtermat and washed three times for 5 minutes in 75 mM phosphoric acid and once in methanol prior to drying and scintillation counting.

[3] = target: human Lyn (Homo sapiens, UniProt P07948); assay: Lyn kinase activity assay; type: biochemical; details: 20 μM
Procedure: In a final reaction volume of 25 μl, human Lyn is incubated with the RSKAKNPLYR peptide (SEQ ID No: 6) in 50 mM Tris buffer pH 7.5, 0.1 mM EGTA, 0.1 mM Na3VO4, 1% mercaptoethanol, 0.1 mg/ml poly(Glu,Tyr) 4:1, 10 mM Mg acetate and [γ-33P-ATP] (specific activity approx. 500 cpm/pmol). The reaction was initiated by the addition of the MgATP mix, incubated for 40 minutes at room temperature prior to being stopped and kinase activity assessed by scintillation counting as per the protocol described for c-Src described in Example 1.1.

[4] = target: PKB alpha (Homo sapiens, UniProt P31749); assay: PKB kinase activity assay; type: biochemical; details: 20 μM, relative to control
[5] = target: mTOR (Homo sapiens, UniProt P42345); assay: mTOR activity; type: biochemical; details: 20 μM, data not shown
[6] = target: kinases listed Table 2; assay: Kinase dose response study (kinases listed Table 2); type: biochemical; details: range over all kinases of Table 2; read-out: IC50 percentage inhibition of activity for all the kinases
Procedure: In a dose response study, the inhibition of the activity of the kinases listed Table 2 at increasing concentrations of dendrimer Dend 10-10(4)DP (see Example 2.3) was assessed employing the treatment protocols described in Examples 1 to 3. As shown in the table, inhibition of kinase activity was obtained by the dendrimer at all the concentrations tested. The IC50 percentage inhibition of activity for all the kinases was in the range of from 0.25-2.0 μM. The results shown in Table 2 are percentage inhibition relative to controls. Comparative dose results for 1 μM dendrimer Dend 10-10(4) are also shown.

[7] = system: HT-29 human colon cancer cells; assay: Apoptosis assay (FITC Annexin V / PI, FACS); type: cell-based; details: 10 μM, 4 hours; FIG. 11
Procedure: The cells were harvested by trypsinisation, washed twice in HBSS and counted counted using Trypan Blue staining. The cells were then re-suspended in the appropriate culture medium to a concentration of 1×10^6 cells/mL. […] The cells were allowed to attach to the plate for 1 h. […] Cells were then harvested by trypsinisation, washed twice in cold phosphate buffered saline (PBS) and then resuspended in 1× binding buffer. 100 μL of the cell suspensions containing 1×10^5 cells were transferred to a 5 mL plastic tube. […] Three controls were also analysed: unstained cells, cells stained only with Annexin V and cells stained only with PI. The data was presented as the percentage of cells being either Annexin V positive only (excluding PI positive cells), PI positive (total) or Annexin V and PI positive (double stain).

[8] = system: MKN45 gastric carcinoma cells; assay: MTT growth/proliferation, MKN45 cells; type: cell-based; details: 48 hours
Procedure: (§1) In this study, the cells were incubated in the presence of the dendrimer for 48 hours. Cell lines were maintained at 37° C. in a humid atmosphere containing 5% CO2. Cells were passaged at pre-confluent densities using a solution containing 0.05% trypsin and 0.5 mM EDTA (Invitrogen).

[9] = system: DU145 prostate cancer cells; assay: MTT growth/proliferation, DU145 cells; type: cell-based; details: 48 hours
Procedure: as §1

[10] = system: HL60 leukemic cells; assay: MTT proliferation, HL60 cells; type: cell-based; details: MTT assay, data not shown; read-out: IC50 inhibition of proliferation of HL60 leukemic cells

Chain of PI3K gamma (P48736 whole entry, species assumed): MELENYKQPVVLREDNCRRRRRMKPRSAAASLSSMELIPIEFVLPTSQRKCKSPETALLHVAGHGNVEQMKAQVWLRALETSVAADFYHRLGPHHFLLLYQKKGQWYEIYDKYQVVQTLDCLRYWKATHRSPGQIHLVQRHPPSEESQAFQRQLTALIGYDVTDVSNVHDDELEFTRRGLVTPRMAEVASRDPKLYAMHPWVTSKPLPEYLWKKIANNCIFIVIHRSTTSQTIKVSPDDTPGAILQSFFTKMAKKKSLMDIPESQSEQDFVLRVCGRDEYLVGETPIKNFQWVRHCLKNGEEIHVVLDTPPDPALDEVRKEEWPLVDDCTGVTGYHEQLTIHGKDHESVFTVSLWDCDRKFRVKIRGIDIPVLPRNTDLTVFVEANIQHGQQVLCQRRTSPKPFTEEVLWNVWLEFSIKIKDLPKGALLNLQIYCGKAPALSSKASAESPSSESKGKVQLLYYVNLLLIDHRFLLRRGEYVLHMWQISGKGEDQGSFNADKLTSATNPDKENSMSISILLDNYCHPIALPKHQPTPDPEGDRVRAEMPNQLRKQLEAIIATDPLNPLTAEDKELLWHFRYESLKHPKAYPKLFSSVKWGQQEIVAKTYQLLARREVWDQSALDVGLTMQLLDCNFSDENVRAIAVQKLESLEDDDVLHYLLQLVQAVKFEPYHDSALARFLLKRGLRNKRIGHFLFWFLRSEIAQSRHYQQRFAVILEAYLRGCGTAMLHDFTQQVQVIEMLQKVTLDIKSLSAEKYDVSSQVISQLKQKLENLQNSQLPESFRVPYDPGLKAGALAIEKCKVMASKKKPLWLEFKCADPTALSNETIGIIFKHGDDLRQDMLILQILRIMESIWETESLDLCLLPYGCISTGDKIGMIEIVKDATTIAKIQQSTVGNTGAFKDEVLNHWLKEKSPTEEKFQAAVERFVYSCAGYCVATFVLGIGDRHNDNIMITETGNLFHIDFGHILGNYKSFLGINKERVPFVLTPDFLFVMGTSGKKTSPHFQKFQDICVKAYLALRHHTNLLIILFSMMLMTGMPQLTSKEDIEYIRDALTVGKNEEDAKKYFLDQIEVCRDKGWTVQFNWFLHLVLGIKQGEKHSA
Chain of PKB alpha (P31749 whole entry): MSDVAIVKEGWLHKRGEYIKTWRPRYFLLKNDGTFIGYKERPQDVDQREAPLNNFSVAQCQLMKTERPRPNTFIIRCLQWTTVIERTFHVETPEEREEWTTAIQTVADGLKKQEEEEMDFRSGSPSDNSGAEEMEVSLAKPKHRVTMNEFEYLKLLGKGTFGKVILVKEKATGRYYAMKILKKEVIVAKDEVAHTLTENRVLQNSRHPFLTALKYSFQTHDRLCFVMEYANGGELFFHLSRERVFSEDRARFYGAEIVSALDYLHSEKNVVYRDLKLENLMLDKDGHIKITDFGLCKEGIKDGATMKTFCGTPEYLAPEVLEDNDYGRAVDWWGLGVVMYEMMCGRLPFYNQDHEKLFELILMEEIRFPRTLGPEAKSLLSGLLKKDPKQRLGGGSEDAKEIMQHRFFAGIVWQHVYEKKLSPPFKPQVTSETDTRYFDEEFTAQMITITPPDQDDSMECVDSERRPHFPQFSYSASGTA
Chain of human Lyn (P07948 whole entry): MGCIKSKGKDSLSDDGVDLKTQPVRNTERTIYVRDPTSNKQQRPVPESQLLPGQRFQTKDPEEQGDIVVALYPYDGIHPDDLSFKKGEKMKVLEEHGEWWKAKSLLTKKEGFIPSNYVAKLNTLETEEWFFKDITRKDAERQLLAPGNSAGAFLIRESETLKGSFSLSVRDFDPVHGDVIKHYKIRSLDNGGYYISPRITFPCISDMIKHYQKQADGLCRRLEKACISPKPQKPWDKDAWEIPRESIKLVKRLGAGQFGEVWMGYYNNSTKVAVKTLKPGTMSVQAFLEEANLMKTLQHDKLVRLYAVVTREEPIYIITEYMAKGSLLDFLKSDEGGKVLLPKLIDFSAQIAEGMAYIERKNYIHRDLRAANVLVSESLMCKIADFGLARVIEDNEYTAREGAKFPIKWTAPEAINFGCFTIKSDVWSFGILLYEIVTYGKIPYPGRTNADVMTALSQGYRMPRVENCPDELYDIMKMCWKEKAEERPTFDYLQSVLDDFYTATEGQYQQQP

Molecule	PIK3 gamma % activity relative to control [1]	inhibition of c-Src activity compared to peptide RSKAKNPLYR alone [2]	inhibition of the activity of c-Lyn relative to controls [3]	% Kinase inhibition PKB alpha [4]	effect on activity of mTOR [5]	IC50 [6]	apoptosis in HT-29 cells [7]	inhibition of growth/proliferation of MKN45 cells [8]	inhibition of growth/proliferation of DU145 cells [9]	IC50 [10]
CC(C)C[C@H](NC(=O)[C@@H]1CCCN1C(=O)[C@H](CC(N)=O)NC(=O)[C@H](CCCCN)NC(=O)[C@H](C)NC(=O)[C@H](CCCCN)NC(=O)[C@H](CO)NC(=O)[C@@H](N)CCCNC(=N)N)C(=O)N[C@@H](Cc1ccc(O)cc1)C(=O)N[C@@H](CCCNC(=N)N)C(=O)NCCCC[C@H](NC(=O)[C@H](CCCCNC(=O)[C@H](CCCCNC(=O)[C@H](CCCNC(=N)N)NC(=O)[C@H](Cc1ccc(O)cc1)NC(=O)[C@H](CC(C)C)NC(=O)[C@@H]1CCCN1C(=O)[C@H](CC(N)=O)NC(=O)[C@H](CCCCN)NC(=O)[C@H](C)NC(=O)[C@H](CCCCN)NC(=O)[C@H](CO)NC(=O)[C@@H](N)CCCNC(=N)N)NC(=O)[C@H](CCCNC(=N)N)NC(=O)[C@H](Cc1ccc(O)cc1)NC(=O)[C@H](CC(C)C)NC(=O)[C@@H]1CCCN1C(=O)[C@H](CC(N)=O)NC(=O)[C@H](CCCCN)NC(=O)[C@H](C)NC(=O)[C@H](CCCCN)NC(=O)[C@H](CO)NC(=O)[C@@H](N)CCCNC(=N)N)NC(=O)[C@H](CCCCNC(=O)[C@H](CCCNC(=N)N)NC(=O)[C@H](Cc1ccc(O)cc1)NC(=O)[C@H](CC(C)C)NC(=O)[C@@H]1CCCN1C(=O)[C@H](CC(N)=O)NC(=O)[C@H](CCCCN)NC(=O)[C@H](C)NC(=O)[C@H](CCCCN)NC(=O)[C@H](CO)NC(=O)[C@@H](N)CCCNC(=N)N)NC(=O)[C@H](CCCNC(=N)N)NC(=O)[C@H](Cc1ccc(O)cc1)NC(=O)[C@H](CC(C)C)NC(=O)[C@@H]1CCCN1C(=O)[C@H](CC(N)=O)NC(=O)[C@H](CCCCN)NC(=O)[C@H](C)NC(=O)[C@H](CCCCN)NC(=O)[C@H](CO)NC(=O)[C@@H](N)CCCNC(=N)N)C(=O)NCCCC[C@H](NC(=O)[C@H](CCCCNC(=O)[C@H](CCCNC(=N)N)NC(=O)[C@H](Cc1ccc(O)cc1)NC(=O)[C@H](CC(C)C)NC(=O)[C@@H]1CCCN1C(=O)[C@H](CC(N)=O)NC(=O)[C@H](CCCCN)NC(=O)[C@H](C)NC(=O)[C@H](CCCCN)NC(=O)[C@H](CO)NC(=O)[C@@H](N)CCCNC(=N)N)NC(=O)[C@H](CCCCNC(=O)[C@H](CCCCNC(=O)[C@H](CCCNC(=N)N)NC(=O)[C@H](Cc1ccc(O)cc1)NC(=O)[C@H](CC(C)C)NC(=O)[C@@H]1CCCN1C(=O)[C@H](CC(N)=O)NC(=O)[C@H](CCCCN)NC(=O)[C@H](C)NC(=O)[C@H](CCCCN)NC(=O)[C@H](CO)NC(=O)[C@@H](N)CCCNC(=N)N)NC(=O)[C@H](CCCNC(=N)N)NC(=O)[C@H](Cc1ccc(O)cc1)NC(=O)[C@H](CC(C)C)NC(=O)[C@@H]1CCCN1C(=O)[C@H](CC(N)=O)NC(=O)[C@H](CCCCN)NC(=O)[C@H](C)NC(=O)[C@H](CCCCN)NC(=O)[C@H](CO)NC(=O)[C@@H](N)CCCNC(=N)N)NC(=O)[C@H](CCCCNC(=O)[C@H](CCCNC(=N)N)NC(=O)[C@H](Cc1ccc(O)cc1)NC(=O)[C@H](CC(C)C)NC(=O)[C@@H]1CCCN1C(=O)[C@H](CC(N)=O)NC(=O)[C@H](CCCCN)NC(=O)[C@H](C)NC(=O)[C@H](CCCCN)NC(=O)[C@H](CO)NC(=O)[C@@H](N)CCCNC(=N)N)NC(=O)[C@H](CCCNC(=N)N)NC(=O)[C@H](Cc1ccc(O)cc1)NC(=O)[C@H](CC(C)C)NC(=O)[C@@H]1CCCN1C(=O)[C@H](CC(N)=O)NC(=O)[C@H](CCCCN)NC(=O)[C@H](C)NC(=O)[C@H](CCCCN)NC(=O)[C@H](CO)NC(=O)[C@@H](N)CCCNC(=N)N)C(=O)NCCC(N)=O [Dend 10-10(4)]	11%	–	–	–	–	–	–	–	–	–
Dend 10-10(4) whose RSKAKNPLYR peptides are entirely D-amino acids and pegylated with two ethylene glycol units [Dend 10-10(4)DP]	–	no increase in the inhibition of c-Src activity	96%	29%	without any effect	250 to 2000 nM	substantial level of apoptosis	inhibited growth/proliferation	inhibited growth/proliferation	2000 nM
